Results published in the supplement of paper PMC13207355.

What was measured:
Conditions in all cases: exposure time: 72 h
[1] = system: E13 (patient-derived glioblastoma stem cells of classical subtype); assay: surviving fraction (nuclei count normalised to DMSO); higher = more cells surviving (less toxic)
[2] = system: E21 (patient-derived glioblastoma stem cells of mesenchymal subtype); assay: as above
[3] = system: E28 (patient-derived glioblastoma stem cells of classical subtype); assay: as above
[4] = system: E31 (patient-derived glioblastoma stem cells of proneural subtype); assay: as above
[5] = system: E34 (patient-derived glioblastoma stem cells of proneural subtype); assay: as above
[6] = system: E57 (patient-derived glioblastoma stem cells of mesenchymal subtype); assay: as above
[7] = system: FT3469 (normal neural stem cell line); assay: as above
[8] = system: E13; assay: phenotypic distance (Euclidean, principal components) from DMSO controls (arbitrary units); higher = stronger morphological change
[9] = system: E21; assay: as above
[10] = system: E28; assay: as above
[11] = system: E31; assay: as above
[12] = system: E34; assay: as above
[13] = system: E57; assay: as above
[14] = system: FT3469; assay: as above
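Throughout, for phenotypic distance (Euclidean, principal components) from DMSO controls: cell Painting imaging in 384-well plates, CellProfiler features reduced to at least 20 principal components, Euclidean distance versus same-plate DMSO vehicle wells (0.1% v/v), median over six images per well.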
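Throughout, for surviving fraction (nuclei count normalised to DMSO): nuclei counted by high-content imaging of Hoechst-stained cells in laminin-coated 384-well plates, relative to 0.1% DMSO vehicle wells, with staurosporine as cell-death control.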

C[C@@H](O[C@H]1OCCN(Cc2n[nH]c(=O)[nH]2)[C@H]1c1ccc(F)cc1)c1cc(C(F)(F)F)cc(C(F)(F)F)c1 [Aprepitant]
Conditions	phenotypic distance	surviving fraction
[1], 4.1 nM	–	0.928
[1], 12.3 nM	–	0.902
[1], 37 nM	–	0.98
[1], 111.1 nM	–	0.996
[1], 333.3 nM	–	0.901
[1], 1000 nM	–	0.903
[1], 3000 nM	–	0.856
[2], 4.1 nM	–	1.02
[2], 12.3 nM	–	0.857
[2], 37 nM	–	0.96
[2], 111.1 nM	–	1.02
[2], 333.3 nM	–	1.02
[2], 1000 nM	–	0.955
[2], 3000 nM	–	0.913
[3], 4.1 nM	–	0.85
[3], 12.3 nM	–	1.09
[3], 37 nM	–	0.982
[3], 111.1 nM	–	1.03
[3], 333.3 nM	–	0.935
[3], 1000 nM	–	1.03
[3], 3000 nM	–	0.879
[4], 4.1 nM	–	1.03
[4], 12.3 nM	–	0.789
[4], 37 nM	–	1.01
[4], 111.1 nM	–	0.981
[4], 333.3 nM	–	1.07
[4], 1000 nM	–	1.04
[4], 3000 nM	–	1
[5], 4.1 nM	–	1.01
[5], 12.3 nM	–	1.01
[5], 37 nM	–	0.914
[5], 111.1 nM	–	1.03
[5], 333.3 nM	–	0.934
[5], 1000 nM	–	0.948
[5], 3000 nM	–	0.963
[6], 4.1 nM	–	0.865
[6], 12.3 nM	–	1.03
[6], 37 nM	–	1.02
[6], 111.1 nM	–	0.945
[6], 333.3 nM	–	0.985
[6], 1000 nM	–	1.07
[6], 3000 nM	–	0.96
[7], 4.1 nM	–	0.843
[7], 12.3 nM	–	0.823
[7], 37 nM	–	0.935
[7], 111.1 nM	–	0.829
[7], 333.3 nM	–	0.999
[7], 1000 nM	–	0.797
[7], 3000 nM	–	0.929
[8], 4.1 nM	0.787	–
[8], 12.3 nM	0.437	–
[8], 37 nM	0.522	–
[8], 111.1 nM	0.344	–
[8], 333.3 nM	0.93	–
[8], 1000 nM	0.532	–
[8], 3000 nM	1.13	–
[9], 4.1 nM	3.49	–
[9], 12.3 nM	1.08	–
[9], 37 nM	0.937	–
[9], 111.1 nM	0.517	–
[9], 333.3 nM	0.679	–
[9], 1000 nM	0.478	–
[9], 3000 nM	1.36	–
[10], 4.1 nM	0.614	–
[10], 12.3 nM	0.686	–
[10], 37 nM	0.613	–
[10], 111.1 nM	0.671	–
[10], 333.3 nM	0.788	–
[10], 1000 nM	0.862	–
[10], 3000 nM	0.675	–
[11], 4.1 nM	0.696	–
[11], 12.3 nM	1.23	–
[11], 37 nM	0.463	–
[11], 111.1 nM	0.647	–
[11], 333.3 nM	1.03	–
[11], 1000 nM	0.986	–
[11], 3000 nM	1.02	–
[12], 4.1 nM	0.513	–
[12], 12.3 nM	0.635	–
[12], 37 nM	0.742	–
[12], 111.1 nM	0.53	–
[12], 333.3 nM	0.573	–
[12], 1000 nM	0.615	–
[12], 3000 nM	1.13	–
[13], 4.1 nM	0.607	–
[13], 12.3 nM	0.891	–
[13], 37 nM	0.573	–
[13], 111.1 nM	0.373	–
[13], 333.3 nM	0.479	–
[13], 1000 nM	1.04	–
[13], 3000 nM	1.13	–
[14], 4.1 nM	0.824	–
[14], 12.3 nM	0.817	–
[14], 37 nM	0.96	–
[14], 111.1 nM	0.816	–
[14], 333.3 nM	0.735	–
[14], 1000 nM	0.537	–
[14], 3000 nM	0.788	–

OC[C@H]1O[C@@H](Oc2ccc(O)cc2)[C@H](O)[C@@H](O)[C@@H]1O [Arbutin]
Conditions	phenotypic distance	surviving fraction
[1], 4.1 nM	–	1.01
[1], 12.3 nM	–	1.04
[1], 37 nM	–	0.905
[1], 111.1 nM	–	0.917
[1], 333.3 nM	–	0.929
[1], 1000 nM	–	1.04
[1], 3000 nM	–	0.991
[2], 4.1 nM	–	1.03
[2], 12.3 nM	–	0.989
[2], 37 nM	–	1.07
[2], 111.1 nM	–	0.916
[2], 333.3 nM	–	1.05
[2], 1000 nM	–	0.971
[2], 3000 nM	–	0.967
[3], 4.1 nM	–	1.1
[3], 12.3 nM	–	1.03
[3], 37 nM	–	1.07
[3], 111.1 nM	–	1.15
[3], 333.3 nM	–	1.07
[3], 1000 nM	–	1.07
[3], 3000 nM	–	0.905
[4], 4.1 nM	–	0.937
[4], 12.3 nM	–	0.846
[4], 37 nM	–	0.945
[4], 111.1 nM	–	0.889
[4], 333.3 nM	–	1.05
[4], 1000 nM	–	1.13
[4], 3000 nM	–	0.884
[5], 4.1 nM	–	0.904
[5], 12.3 nM	–	1.15
[5], 37 nM	–	1.05
[5], 111.1 nM	–	1.02
[5], 333.3 nM	–	1.08
[5], 1000 nM	–	1.02
[5], 3000 nM	–	0.848
[6], 4.1 nM	–	0.949
[6], 12.3 nM	–	0.993
[6], 37 nM	–	1.11
[6], 111.1 nM	–	0.918
[6], 333.3 nM	–	1.07
[6], 1000 nM	–	1
[6], 3000 nM	–	1
[7], 4.1 nM	–	1.08
[7], 12.3 nM	–	0.99
[7], 37 nM	–	1.28
[7], 111.1 nM	–	0.987
[7], 333.3 nM	–	1.18
[7], 1000 nM	–	1.16
[7], 3000 nM	–	0.993
[8], 4.1 nM	0.566	–
[8], 12.3 nM	0.859	–
[8], 37 nM	0.511	–
[8], 111.1 nM	0.508	–
[8], 333.3 nM	0.829	–
[8], 1000 nM	0.191	–
[8], 3000 nM	0.813	–
[9], 4.1 nM	0.434	–
[9], 12.3 nM	1.06	–
[9], 37 nM	0.902	–
[9], 111.1 nM	0.857	–
[9], 333.3 nM	0.484	–
[9], 1000 nM	0.568	–
[9], 3000 nM	0.491	–
[10], 4.1 nM	0.41	–
[10], 12.3 nM	0.873	–
[10], 37 nM	0.666	–
[10], 111.1 nM	1.1	–
[10], 333.3 nM	0.543	–
[10], 1000 nM	0.716	–
[10], 3000 nM	0.531	–
[11], 4.1 nM	0.898	–
[11], 12.3 nM	0.639	–
[11], 37 nM	0.606	–
[11], 111.1 nM	0.754	–
[11], 333.3 nM	0.505	–
[11], 1000 nM	0.754	–
[11], 3000 nM	0.805	–
[12], 4.1 nM	0.689	–
[12], 12.3 nM	0.94	–
[12], 37 nM	0.434	–
[12], 111.1 nM	0.454	–
[12], 333.3 nM	0.675	–
[12], 1000 nM	0.496	–
[12], 3000 nM	1.12	–
[13], 4.1 nM	0.568	–
[13], 12.3 nM	0.753	–
[13], 37 nM	0.629	–
[13], 111.1 nM	0.522	–
[13], 333.3 nM	0.897	–
[13], 1000 nM	0.4	–
[13], 3000 nM	0.484	–
[14], 4.1 nM	0.247	–
[14], 12.3 nM	0.982	–
[14], 37 nM	0.795	–
[14], 111.1 nM	1.03	–
[14], 333.3 nM	0.636	–
[14], 1000 nM	1.1	–
[14], 3000 nM	0.991	–

CC1CNc2c(cccc2S(=O)(=O)N[C@@H](CCCNC(=N)N)C(=O)N2CC[C@@H](C)C[C@@H]2C(=O)O)C1 (some centres undefined) [Argatroban]
Conditions	phenotypic distance	surviving fraction
[1], 4.1 nM	–	0.887
[1], 12.3 nM	–	0.726
[1], 37 nM	–	1.06
[1], 111.1 nM	–	0.787
[1], 333.3 nM	–	1.03
[1], 1000 nM	–	0.955
[1], 3000 nM	–	1.04
[2], 4.1 nM	–	0.935
[2], 12.3 nM	–	0.953
[2], 37 nM	–	0.963
[2], 111.1 nM	–	0.778
[2], 333.3 nM	–	1.07
[2], 1000 nM	–	1.08
[2], 3000 nM	–	1.11
[3], 4.1 nM	–	0.975
[3], 12.3 nM	–	0.963
[3], 37 nM	–	0.877
[3], 111.1 nM	–	1.3
[3], 333.3 nM	–	1.01
[3], 1000 nM	–	1.14
[3], 3000 nM	–	1.16
[4], 4.1 nM	–	1.08
[4], 12.3 nM	–	0.893
[4], 37 nM	–	0.911
[4], 111.1 nM	–	0.95
[4], 333.3 nM	–	0.959
[4], 1000 nM	–	1.04
[4], 3000 nM	–	1.12
[5], 4.1 nM	–	1.04
[5], 12.3 nM	–	1.04
[5], 37 nM	–	0.976
[5], 111.1 nM	–	0.935
[5], 333.3 nM	–	1.05
[5], 1000 nM	–	1.13
[5], 3000 nM	–	0.923
[6], 4.1 nM	–	1.01
[6], 12.3 nM	–	1.03
[6], 37 nM	–	0.918
[6], 111.1 nM	–	1.04
[6], 333.3 nM	–	1.04
[6], 1000 nM	–	1.01
[6], 3000 nM	–	0.888
[7], 4.1 nM	–	0.74
[7], 12.3 nM	–	0.878
[7], 37 nM	–	0.961
[7], 111.1 nM	–	0.906
[7], 333.3 nM	–	1.09
[7], 1000 nM	–	0.99
[7], 3000 nM	–	0.886
[8], 4.1 nM	0.936	–
[8], 12.3 nM	1.03	–
[8], 37 nM	0.706	–
[8], 111.1 nM	0.818	–
[8], 333.3 nM	0.637	–
[8], 1000 nM	0.667	–
[8], 3000 nM	0.543	–
[9], 4.1 nM	1.43	–
[9], 12.3 nM	0.727	–
[9], 37 nM	1.18	–
[9], 111.1 nM	0.876	–
[9], 333.3 nM	1.26	–
[9], 1000 nM	1.01	–
[9], 3000 nM	1.26	–
[10], 4.1 nM	0.894	–
[10], 12.3 nM	0.602	–
[10], 37 nM	0.844	–
[10], 111.1 nM	0.794	–
[10], 333.3 nM	0.356	–
[10], 1000 nM	0.549	–
[10], 3000 nM	0.893	–
[11], 4.1 nM	0.911	–
[11], 12.3 nM	0.664	–
[11], 37 nM	0.863	–
[11], 111.1 nM	0.601	–
[11], 333.3 nM	2.25	–
[11], 1000 nM	0.919	–
[11], 3000 nM	0.822	–
[12], 4.1 nM	0.682	–
[12], 12.3 nM	0.667	–
[12], 37 nM	0.842	–
[12], 111.1 nM	0.535	–
[12], 333.3 nM	0.743	–
[12], 1000 nM	1.04	–
[12], 3000 nM	1.26	–
[13], 4.1 nM	0.489	–
[13], 12.3 nM	0.826	–
[13], 37 nM	0.498	–
[13], 111.1 nM	0.438	–
[13], 333.3 nM	0.495	–
[13], 1000 nM	0.711	–
[13], 3000 nM	0.963	–
[14], 4.1 nM	3.82	–
[14], 12.3 nM	1.39	–
[14], 37 nM	0.709	–
[14], 111.1 nM	0.753	–
[14], 333.3 nM	0.744	–
[14], 1000 nM	0.391	–
[14], 3000 nM	1.07	–
